According to patent publication US8598200B2, “KAT II inhibitors” (Pfizer Inc., priority 2010, dated 2013):

Biological target: human KAT II (hKAT II) enzyme (Homo sapiens (Human), UniProt Q8N5Z0)
Assay: KAT II Inhibition Spectra Assay
Assay type: biochemical
Conditions: decrease in OD370, L-kynurenine substrate, 37° C. for 15-20 h; values marked ^1 are the average of 2 IC50 determinations; read-out: KATII IC50 (nM; single determination unless otherwise indicated)
Experimental: Formation of kynurenic acid (KYNA) is indirectly assessed by a decrease in light absorbance at 370 nm (OD370) as the L-kynurenine (KYN) substrate is converted by the human KAT II (hKAT II) enzyme into KYNA. An inhibitor would therefore inhibit the decrease in OD370.
The protocol was performed by placing the following reagents into a Costar 384 well black plate (30 μL total assay volume/well): • 10 μL of 3× concentrated compound; • 10 μL of 3× concentrated substrate mix (BGG (Sigma G-5009); 3 mM L-Kynurenine in 150 mM Tris Acetate (Sigma K3750); 3 mM α-ketoglutaric acid in 150 mM Tris Acetate (Sigma K2010); and 210 μM pyridoxal 5-phosphate (PLP) in 150 mM Tris Acetate (Sigma 9255)); and • 10 μL of 3× concentrated enzyme (15 nM enzyme in 150 mM Tris Acetate with 0.3% bovine serum).
Plates were sealed and incubated at 37° C. for 15-20 h before reading OD370 on a SpectraMax Plus plate reader. IC50s were generated by comparing the efficacy of compounds across a concentration range to inhibit a reduction in the OD370 value relative to assay wells with DMSO added in place of concentrated compound. Biological data for the Examples may be found in Table 2.

human KAT II (hKAT II) enzyme, sequence (Q8N5Z0 30-425): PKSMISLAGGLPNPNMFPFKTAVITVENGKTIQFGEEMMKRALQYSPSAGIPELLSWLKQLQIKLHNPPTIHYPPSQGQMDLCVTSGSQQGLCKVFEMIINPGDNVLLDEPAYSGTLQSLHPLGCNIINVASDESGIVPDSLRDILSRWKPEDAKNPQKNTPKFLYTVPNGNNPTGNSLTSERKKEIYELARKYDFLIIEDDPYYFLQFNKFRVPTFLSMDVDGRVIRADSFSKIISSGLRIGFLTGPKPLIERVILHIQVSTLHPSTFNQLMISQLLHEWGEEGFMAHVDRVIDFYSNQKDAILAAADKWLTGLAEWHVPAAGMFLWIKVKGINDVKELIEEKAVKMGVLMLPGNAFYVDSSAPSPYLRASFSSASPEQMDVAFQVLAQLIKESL

Compound	IC50
N[C@H]1Cc2cn(Cc3ccccc3)nc2N(O)C1=O [Example 1, (5S)-5-Amino-2-benzyl-7-hydroxy-2,4,5,7-tetrahydro-6H-pyrazolo[3,4-b]pyridin-6-one]	59.4 nM
Cn1nc(Cc2ccccc2)c2c1N(O)C(=O)[C@@H](N)C2 [Example 2, (5S)-5-Amino-3-benzyl-7-hydroxy-1-methyl-1,4,5,7-tetrahydro-6H-pyrazolo[3,4-b]pyridin-6-one]	63.7 nM
Cn1nc2c(c1Cc1ccccc1)C[C@H](N)C(=O)N2O [Example 3, (5S)-5-Amino-3-benzyl-7-hydroxy-2-methyl-2,4,5,7-tetrahydro-6H-pyrazolo[3,4-b]pyridin-6-one]	11.5 nM
N[C@H]1Cc2c(cnn2Cc2ccccc2)N(O)C1=O [Example 4, (6S)-6-Amino-1-benzyl-4-hydroxy-1,4,6,7-tetrahydro-5H-pyrazolo[4,3-b]pyridin-5-one]	22.5 nM
N[C@H]1Cc2c(c(C(F)(F)F)nn2Cc2ccccc2)N(O)C1=O [Example 5, (6S)-6-Amino-1-benzyl-4-hydroxy-3-(trifluoromethyl)-1,4,6,7-tetrahydro-5H-pyrazolo[4,3-b]pyridin-5-one]	42.7 nM
N[C@H]1Cc2cn(Cc3ccc(OC(F)(F)F)cc3)nc2N(O)C1=O [Example 6, (5S)-5-Amino-7-hydroxy-2-[4-(trifluoromethoxy)benzyl]-2,4,5,7-tetrahydro-6H-pyrazolo[3,4-b]pyridin-6-one]	43.6 nM
N[C@H]1Cc2cn(-c3cccc(C(F)(F)F)c3)nc2N(O)C1=O [Example 7, (5S)-5-Amino-7-hydroxy-2-[3-(trifluoromethyl)phenyl]-2,4,5,7-tetrahydro-6H-pyrazolo[3,4-b]pyridin-6-one]	74.7 nM
N[C@H]1Cc2cn(Cc3cccc4ccccc34)nc2N(O)C1=O [Example 8, (5S)-5-amino-7-hydroxy-2-(1-naphthylmethyl)-2,4,5,7-tetrahydro-6H-pyrazolo[3,4-b]pyridin-6-one]	36 nM
N[C@H]1Cc2cn(Cc3ccc4ccccc4c3)nc2N(O)C1=O [Example 9, (5S)-5-amino-7-hydroxy-2-(2-naphthylmethyl)-2,4,5,7-tetrahydro-6H-pyrazolo[3,4-b]pyridin-6-one]	117 nM
COc1ccccc1Cn1cc2c(n1)N(O)C(=O)[C@@H](N)C2 [Example 10, (5S)-5-amino-7-hydroxy-2-(2-methoxybenzyl)-2,4,5,7-tetrahydro-6H-pyrazolo[3,4-b]pyridin-6-one]	50.2 nM
COc1cccc(Cn2cc3c(n2)N(O)C(=O)[C@@H](N)C3)c1 [Example 11, (5S)-5-amino-7-hydroxy-2-(3-methoxybenzyl)-2,4,5,7-tetrahydro-6H-pyrazolo[3,4-b]pyridin-6-one]	8.93 nM
Cc1c2c(nn1Cc1ccccc1)N(O)C(=O)[C@@H](N)C2 [Example 12, (5S)-5-amino-2-benzyl-7-hydroxy-3-methyl-2,4,5,7-tetrahydro-6H-pyrazolo[3,4-b]pyridin-6-one]	81.6 nM
N[C@H]1Cc2nn(Cc3ccccc3)cc2N(O)C1=O [Example 13, (6S)-6-amino-2-benzyl-4-hydroxy-2,4,6,7-tetrahydro-5H-pyrazolo[4,3-b]pyridin-5-one]	182 nM
N[C@H]1Cc2cn(-c3ccccc3)nc2N(O)C1=O [Example 14, (5S)-5-amino-7-hydroxy-2-phenyl-2,4,5,7-tetrahydro-6H-pyrazolo[3,4-b]pyridin-6-one]	24.3 nM
COc1ccc(Cn2cc3c(n2)N(O)C(=O)[C@@H](N)C3)cc1 [Example 15, (5S)-5-amino-7-hydroxy-2-(4-methoxybenzyl)-2,4,5,7-tetrahydro-6H-pyrazolo[3,4-b]pyridin-6-one]	28.3 nM
Cc1c2c(nn1-c1ccccc1)C[C@H](N)C(=O)N2O [Example 17, (6S)-6-amino-4-hydroxy-3-methyl-2-phenyl-2,4,6,7-tetrahydro-5H-pyrazolo[4,3-b]pyridin-5-one]	2010 nM
Cn1ncc2c1N(O)C(=O)[C@@H](N)C2 [Example 18, (5S)-5-amino-7-hydroxy-1-methyl-1,4,5,7-tetrahydro-6H-pyrazolo[3,4-b]pyridin-6-one]	329 nM
N[C@H]1Cc2cn(C3CCC3)nc2N(O)C1=O [Example 19, (5S)-5-amino-2-cyclobutyl-7-hydroxy-2,4,5,7-tetrahydro-6H-pyrazolo[3,4-b]pyridin-6-one]	81.3 nM
CC(C)n1cc2c(n1)N(O)C(=O)[C@@H](N)C2 [Example 20, (5S)-5-amino-7-hydroxy-2-isopropyl-2,4,5,7-tetrahydro-6H-pyrazolo[3,4-b]pyridin-6-one]	153 nM
COc1ccc(Cc2nn(C)c3c2C[C@H](N)C(=O)N3O)cc1 [Example 21]	440 nM
COc1cccc(Cc2nn(C)c3c2C[C@H](N)C(=O)N3O)c1 [Example 22, (5S)-5-amino-7-hydroxy-3-(3-methoxybenzyl)-1-methyl-1,4,5,7-tetrahydro-6H-pyrazolo[3,4-b]pyridin-6-one]	65.6 nM
CCn1nc2c(c1Cc1ccccc1)C[C@H](N)C(=O)N2O [Example 23, (5S)-5-amino-3-benzyl-2-ethyl-7-hydroxy-2.4,5,7-tetrahydro-6H-pyrazolo[3,4-b]pyridin-6-one]	24.3 nM
CC(C)n1nc2c(c1Cc1ccccc1)C[C@H](N)C(=O)N2O [Example 24, (5S)-5-amino-3-benzyl-7-hydroxy-2-isopropyl-2,4,5,7-tetrahydro-6H-pyrazolo[3,4-b]pyridin-6-one]	63 nM
Cn1nc2c(c1Cc1cccc(C(F)(F)F)c1)C[C@H](N)C(=O)N2O [Example 25, (5S)-5-amino-7-hydroxy-2-methyl-3-[3-(trifluoromethyl)benzyl]-2,4,5,7-tetrahydro-6H-pyrazolo[3,4-b]pyridin-6-one]	42.2 nM
Cn1nc2c(c1Cc1ccccc1C(F)(F)F)C[C@H](N)C(=O)N2O [Example 26, (5S)-5-amino-7-hydroxy-2-methyl-3-[2-(trifluoromethyl)benzyl]-2.4,5,7-tetrahydro-6H-pyrazolo[3,4-b] pyridin-6-one]	40.7 nM
Cn1nc2c(c1Cc1ccc(C(F)(F)F)cc1)C[C@H](N)C(=O)N2O [Example 27, (5S)-5-amino-7-hydroxy-2-methyl-3-[4-(trifluoromethyl)benzyl]-2,4,5,7-tetrahydro-6H-pyrazolo[3,4-6]pyridin-6-one]	37 nM
N[C@H]1Cc2cn(-c3ccccc3C(F)(F)F)nc2N(O)C1=O [Example 28, (5S)-5-amino-7-hydroxy-2-[2-(trifluoromethyl)phenyl]-2,4,5,7-tetrahydro-6H-pyrazolo[3,4-b]pyridin-6-one]	38.8 nM
N[C@H]1Cc2cn(-c3ccc(C(F)(F)F)cc3)nc2N(O)C1=O [Example 29, (5S)-5-amino-7-hydroxy-2-[4-(trifluoromethyl)phenyl]-2,4,5,7-tetrahydro-6H-pyrazolo[3,4-b]pyridin-6-one]	31.6 nM
